For experiment [1], the target named is T1, GnRH receptors (bovine pituitary anterior lobe membrane fraction) (Bos taurus, UniProt P32236).
T1 construct: A bovine pituitary anterior lobe membrane fraction containing GnRH receptors was prepared; from tissue; host or cells: bovine pituitary anterior lobe, membrane fraction
T1 sequence (P32236 1-328): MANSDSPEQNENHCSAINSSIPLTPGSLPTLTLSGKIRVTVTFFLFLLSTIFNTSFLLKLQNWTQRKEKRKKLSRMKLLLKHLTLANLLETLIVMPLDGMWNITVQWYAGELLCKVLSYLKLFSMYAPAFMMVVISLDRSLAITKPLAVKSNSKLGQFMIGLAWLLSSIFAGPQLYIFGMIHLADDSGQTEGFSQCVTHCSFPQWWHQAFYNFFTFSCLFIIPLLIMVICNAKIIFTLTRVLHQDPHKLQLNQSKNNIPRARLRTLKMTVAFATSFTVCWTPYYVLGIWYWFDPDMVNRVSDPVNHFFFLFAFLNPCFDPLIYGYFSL
Briefly: 125I-leuprolerin GnRH receptor binding inhibition test, bovine pituitary anterior lobe membrane fraction. Conditions: 4° C., 90 minutes, read-out: Binding inhibitory activity (IC50 μM) Bovine. The method, then:
Ten (10) μl of 3×10^4 M aqueous leuprolerin solution and 10 μl of 0.01 mg/ml lactoperoxidase were taken in a tube and 10 μl of Na^125 I solution (37 MBq) was added. After stirring, 10 μl of 0.001% H2 O2 was added and the reaction was conducted at room temperature for 20 minutes. Then, 700 μl of 0.05% TFA solution was added to the tube to terminate the reaction and the reaction mixture was purified by reverse-phase HPLC. The HPLC conditions are shown below. ^125 I-leuprolerin was eluted after a retention time of 26-27 minutes. (C) Preparation of a Bovine Pituitary Anterior Lobe Membrane Fraction Containing GnRH Receptors A bovine pituitary anterior lobe membrane fraction containing GnRH receptors was prepared by the same procedure as described under (B). However, a 10,000×G centrifugation supernatant was recentrifuged at 100,000×G for 1 hour to provide the membrane fraction pellet. […] For the rat and human membrane fractions prepared in (B) and (D), each membrane fraction was diluted with assay buffer to a concentration of 200 μg/ml and distributed in 188 μl portions into tubes. As to the bovine membrane fraction prepared in (C), the membrane fraction was diluted with assay buffer to 750 μg/ml and distributed in 188 μl portions into tubes. […] Where the rat or bovine pituitary anterior lobe membrane fraction was used, the reaction was conducted at 4° C. for 90 minutes. Where the membrane fraction of the CHO with human GnRH receptors expressed was used, the reaction was carried out at 25° C. for 60 minutes. […] After filtration, the radioactivity of ^125 I-leuprolerin remaining on the filter was measured with a γ-counter. The expression (TB-SB)/(TB-NSB)×100 (where SB=radioactivity with the compound added, TB=maximum bound radioactivity, NSB=nonspecifically bound radioactivity) was calculated to find the binding inhibition rate of each test compound.

The target in experiment [2] is T2, GnRH receptors (rat pituitary anterior lobe membrane fraction) (Rattus norvegicus, UniProt P30969).
T2 construct: the anterior lobe of the pituitary gland was isolated and washed with ice-cooled homogenate buffer; from tissue; host or cells: anterior lobe of the pituitary gland, male Wistar rats (8 weeks old), membrane fraction
T2 sequence (P30969 1-327): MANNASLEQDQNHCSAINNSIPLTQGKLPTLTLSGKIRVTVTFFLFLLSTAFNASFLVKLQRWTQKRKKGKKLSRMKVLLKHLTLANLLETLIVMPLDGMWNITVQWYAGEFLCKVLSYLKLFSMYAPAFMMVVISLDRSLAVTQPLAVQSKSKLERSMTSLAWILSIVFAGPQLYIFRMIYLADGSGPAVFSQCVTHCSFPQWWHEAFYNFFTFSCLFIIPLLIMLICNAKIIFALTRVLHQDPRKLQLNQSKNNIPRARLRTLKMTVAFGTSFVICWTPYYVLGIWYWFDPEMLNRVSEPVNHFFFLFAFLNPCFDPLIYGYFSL
Nature of the experiment: 125I-leuprolerin GnRH receptor binding inhibition test, rat pituitary anterior lobe membrane fraction. Conditions: 4° C., 90 minutes, read-out: Binding inhibitory activity (IC50 μM) Rat. The method, then: Ten (10) μl of 3×10^4 M aqueous leuprolerin solution and 10 μl of 0.01 mg/ml lactoperoxidase were taken in a tube and 10 μl of Na^125 I solution (37 MBq) was added. After stirring, 10 μl of 0.001% H2 O2 was added and the reaction was conducted at room temperature for 20 minutes. Then, 700 μl of 0.05% TFA solution was added to the tube to terminate the reaction and the reaction mixture was purified by reverse-phase HPLC. The HPLC conditions are shown below. ^125 I-leuprolerin was eluted after a retention time of 26-27 minutes. (B) Preparation of a Rat Pituitary Anterior Lobe Membrane Fraction Containing GnRH Receptors […] The pituitary tissue was floated in 2 ml of the homogenate buffer and homogenized using a Polytron homogenizer. The homogenate was centrifuged at 700×G for 15 minutes. The supernatant was taken in an ultracentrifuge tube and centrifuged at 100,000×G for 1 hour to provide a membrane fraction pellet. […] The membrane fraction recovered as a pellet was resuspended in 10 ml of assay buffer, divided into portions, preserved at -80° C. and thawed when needed. […] For the rat and human membrane fractions prepared in (B) and (D), each membrane fraction was diluted with assay buffer to a concentration of 200 μg/ml and distributed in 188 μl portions into tubes. As to the bovine membrane fraction prepared in (C), the membrane fraction was diluted with assay buffer to 750 μg/ml and distributed in 188 μl portions into tubes. […] Where the rat or bovine pituitary anterior lobe membrane fraction was used, the reaction was conducted at 4° C. for 90 minutes. Where the membrane fraction of the CHO with human GnRH receptors expressed was used, the reaction was carried out at 25° C. for 60 minutes. […] After filtration, the radioactivity of ^125 I-leuprolerin remaining on the filter was measured with a γ-counter. The expression (TB-SB)/(TB-NSB)×100 (where SB=radioactivity with the compound added, TB=maximum bound radioactivity, NSB=nonspecifically bound radioactivity) was calculated to find the binding inhibition rate of each test compound.

Experiment [3] deals with 45Ca2+ uptake (veratrine-stimulated, rat cerebral cortex crude synaptosome fraction). Nature of the experiment: 45Ca2+ uptake inhibition experiment. Conditions: 30 μM veratrine, 37° C., 10 minutes, read-out: 45Ca2+ uptake inhibitory activity (IC50 μM). Format: biochemical. The method, then: The rat cerebral cortex was homogenized in 10 volumes of ice-cooled 0.32M sucrose solution to prepare a crude synaptosome fraction (100×G, 10 min., 12000×G, 20 min.). […] To 900 μl of the homogenate was added a DMSO solution of the test drug (10 μl). The mixture was incubated at 37° C. for 10 minutes, followed by addition of 100 μl of a veratrine solution (containing 0.18 uci ^45 Ca^2+) at a final veratrine concentration of 30 μM. The mixture was incubated at 37° C. for 10 minutes, quenched with 4 ml of ice-cooled EGTA solution (120 mM sodium chloride, 5 mM potassium chloride, 5 mM EGTA, pH=7.5) and suction-filtered using a GF/B filter. The filter was washed twice with 4 ml each of a washing solution (132 mM sodium chloride, 5 mM potassium chloride, 1.3 mM magnesium chloride, 1.2 mM calcium, chloride, 20 mM Tris base, pH 7.5) and the radioactivity of […] was measured by the liquid scintillation method.
The ^45 Ca^2+ uptake inhibition rate was calculated by means of the following equation. [formula] A: The ^45 Ca^2+ uptake after 10 minutes' stimulation with 30 μM veratrine in the presence of the test drug
B: The ^45 Ca^2+ uptake in the absence of veratrine and in the presence of the test drug
C: The ^45 Ca^2+ uptake after 10 minutes' stimulation with 30 μM veratrine in the absence of the test drug
D: The ^45 Ca^2+ uptake in the absence of the test drug and in the absence of veratrine

A further experiment deals with serotonine (5-HT) uptake. Briefly: Activity to inhibit serotonine (5-HT) uptake. Format: biochemical. Conditions: rat whole brain; 3H-5-HT 10 nM; 37° C.; pH 7.4; read-out: 5-HT uptake inhibitory activity (IC50 μM). How it is done:
(a) Activity to inhibit serotonine (5-HT) uptake
(§1) The experiment was performed in accordance with the method of Hyttel et al. [Psychopharmacology 60, 13, 1978]. The whole brain of a rat was homogenized in 40 volumes of ice-cooled 0.32M sucrose solution containing 10 μM pargyline and, then, centrifuged (600×G) for 10 minutes. The supernatant was centrifuged (2500×G) for 55 minutes to provide a pellet. This pellet was suspended in Krebs-Ringer-phosphate buffer (pH 7.4; 122 mM NaCl, 4.82 mM KCl, 0.972 mM CaCl2, 1.21 mM MgSO4, 12.7 mM Na2 HPO4, 2.97 mM NaH2 PO4, 0.162 mM EDTA sodium, 10 mM glucose, 1.14 mM ascorbic acid) saturated with a mixed gas (95% O and 5% CO2). To 900 μl of this suspention was added a solution of the test drug (10 μl) in DMSO and the mixture was incubated at 37° C. for 5 minutes. Then, 100 μl of ^3 H-5-HT (final concentration 10 nM) was added and the mixture was further incubated at 37° C. for 5 minutes. This reaction mixture was filtered under suction using a GF/B filter and the filter was washed with 4 ml of the above-mentioned buffer. The radioactivity on the filter was measured by the liquid scintillation method.
The amount of the drug which caused a 50% decrease in 5-HT uptake is shown as 50% inhibitory activity (IC50) in Table 42.

Experiment [4] deals with norepinephrine (NE) uptake. Nature of the experiment: Activity to inhibit norepinephrine (NE) uptake. It is filed as biochemical. Conditions: rat cerebral cortex; 3H-NE; read-out: NE uptake inhibitory activity (IC50 μM). The method, then:
as §1
(b) Activity to inhibit norepinephrine (NE) uptake
Using the rat cerebral cortex and, as the substrate, ^3 H-NE, an experiment was performed by otherwise the same procedure as described for 5-HT.

SMILES strings stand for the structures. Structures can show the parent of a compound that is named as a salt.

One may read the IC50 as the midpoint of a concentration-inhibition curve.

Turning to `O=C1c2ccccc2CCC12CCCCN2CCCC1(c2ccccc2)COCc2ccccc21` (centres unmarked) [Example I-49, 3,4-Dihydro-1'-[3-(4-phenylisochroman-4-yl)propyl]spiro[1-oxonaphthalene-2(1H),2'-piperidine] hydrochloride], the 50% inhibitory concentration (IC50) in experiment [1] was found to be 10 µM; in experiment [2], 0.5 µM.
Take `c1ccc(C2CCN(CCCC3(c4ccccc4)COCc4ccccc43)CC2)cc1` (centres unmarked) [Example I-33, 4-[3-(4.-Phenylpiperidino)propyl]-4-phenylisochroman hydrochloride]: the half-maximal inhibitory concentration (IC50) turned out to be 0.69 µM in experiment [3], 0.27 µM in the experiment on serotonine (5-HT) uptake and 0.55 µM in experiment [4].
For `Fc1ccc(N2CCN(CCCC3(c4ccccc4)COCc4ccccc43)CC2)cc1` (centres unmarked) [Example I-30, 4-{3-[4-(p-Fluorophenyl)piperazin-1-yl]propyl}-4-phenylisochroman dihydrochloride], in that order: 1.59 µM, 0.068 µM and 0.59 µM.
On to `O=C1c2ccsc2CCC12CCCCN2CCCC1(c2ccccc2)COCc2ccccc21` (centres unmarked) [Example I-47, 6,7-Dihydro-1'-[3-(4-phenylisochroman-4-yl)propyl]spiro[4-oxobenzo(b)thiophene-5(4H),2'-piperidine] hydrochloride], for which the 50% inhibitory concentration (IC50) in experiment [1] turned out to be 7 µM; in experiment [2], 0.3 µM.
The matching figures for `COc1cc2c(cc1OC)CC1(CCCCN1CCCC1(c3ccccc3)COCc3ccccc31)CC2` (centres unmarked) [Example I-37, 3,4-Dihydro-6,7-dimethoxy-1'-[3-(4-phenylisochroman-4-yl)propyl]spiro[naphthalene-2(1H),2'-piperidine] hydrochloride]: 6 µM and 0.03 µM.
As to `Cc1cccc(CNCCCC2(c3ccccc3)COCc3ccccc32)c1` (centres unmarked) [Example I-46, 4-[3-(m-Methylbenzylamino)propyl]-4-phenylisochroman hydrochloride], the IC50 in experiment [1] was found to be 14 µM; in experiment [2], 0.5 µM.
Take `COc1ccc(CCNCCCC2(c3ccccc3)COCc3ccccc32)cc1OC` (centres unmarked) [Example I-25, 4-[3-(3,4-Dimethoxyphenethylamino)propyl]-4-phenylisochroman hydrochloride]: the concentration for half-maximal inhibition (IC50) in experiment [3] was 1.19 µM; in the experiment on serotonine (5-HT) uptake it was 0.14 µM; in experiment [4], 0.39 µM.
With `COc1cc2c(cc1OC)CC1(CCCCN1CCCC1(c3ccc(F)cc3)COCc3ccccc31)CC2` (centres unmarked) [Example I-50, 3,4-Dihydro-6,7-dimethoxy-1'-{3-[4-(p-fluorophenyl)isochroman-4-yl]propyl}spiro[naphthalene-2(1H),2'-piperidine] hydrochloride], the values for the 50% inhibitory concentration (IC50) in experiment [1] and in experiment [2] were 8 µM and 0.08 µM, respectively.
For `COc1ccc2c(c1)CCC1(CCCCN1CCCC1(c3ccccc3)COCc3ccccc31)C2=O` (centres unmarked) [Example I-48, 3,4-Dihydro-6-methoxy-1'-[3-(4-phenylisochroman-4-yl)propyl]spiro[1-oxonaphthalene-2-(1H),2'-piperidine] hydrochloride], in that order: 10 µM and 0.4 µM.
As for `c1ccc(C2(CCN3CCCCC34CCc3ccccc3C4)COCc3ccccc32)cc1` (centres unmarked) [Example I-12, 3,4-Dihydro-1'-[2-(4-phenylisochroman-4-yl)ethyl]spiro[naphthalene-2(1H),2'-piperidine] hydrochloride], the IC50 in experiment [3] is 0.85 µM; in the experiment on serotonine (5-HT) uptake it was 0.022 µM; in experiment [4], 0.015 µM.
`c1ccc(C2(CCCNC3CCCc4ccccc43)COCc3ccccc32)cc1` (centres unmarked) [Example I-51, 4-Phenyl-4-{3-[1-(1,2,3,4-tetrahydronaphthylamino)]propyl]isochroman hydrochloride]: the figures for the IC50 in experiment [1] and in experiment [2] were 10 µM and 0.5 µM, respectively.
